Experimental data from EP1724268A1, “COMPOUND HAVING TGF-BETA INHIBITORY ACTIVITY AND PHARMACEUTICAL COMPOSITION CONTAINING SAME” (KIRIN BEER KABUSHIKI KAISHA, priority 2004, dated 2005).
Like-named read-outs stand apart in the source and are kept apart here.

Test system: TGFβ signal
Test: TGFβ signal inhibitory activity, (SBE)4-Luc reporter in A549 cells (Test Examples 1A and 1B)
Assay type: cell-based, human
Details: for inhibition at 3 µM / inhibition at 10 µM: Homo sapiens, A549, read-out: TGFβ inhibition rate, %
Protocol: Test Example 1A: TGFβ signal inhibitory activity (in vitro test) The compounds according to the present invention was evaluated for TGFβ signal inhibitory activity according to the method described in J. Boil .Chem., 273, 21145-21152 (1998). Specifically, a plasmid having four tandem binding sequences of Smad3, a TGF-beta signal transducer, to the upstream of a luciferases gene were used as a reporter plasmid ((SBE)4-Luc) to detect TGF-beta signal, This reporter gene was introduced into human pulmonary carcinoma epithelial cells (A549) (available from ATCC) to establish a stable cell line. A test compound and TGFβ-1 (2 ng/ ml) were added to the cells, and the mixture was cultured for 4 hr. In this case, the compounds according to the present invention synthesized in the Examples were used as the test compound. After the culture, the luciferase activity of the cells were measured by chemiluminescence (Steady Glo (trademark) luciferase assay system, available from Promega). Likewise, the luciferase activity was measured as a control against the culture of cells with the addition of TGFβ only and the culture of cells without the addition of both TGFβ and the test compound.
The TGFβ inhibition (%) was calculated by the following equation, based on the measurement results. TGFβ inhibition(%) = (A-B)/(A-C) × 100 [formula] wherein • A: luciferase activity with the addition of TGFβ1 and without the addition of test compound (relative luciferase unit), • B: luciferase activity with the addition of both TGFβ1 and test compound (relative luciferase unit), and • C: luciferase activity without the addition of both TGFβ1 and test compound (relative luciferase unit).
The test was carried out for each of test compound at the concentrations of 3 µM and 10 µM. For certain test compounds, the test was further carried out for test compound at the concentration of 1 µM.
For the compounds of Reference Examples, the TGFβ signal inhibitory activity was evaluated in the same manner as in Test Example 1A.

[1] = 3 µM, compounds of Reference Examples (Test Example 1B)
[2] = 10 µM, compounds of Reference Examples (Test Example 1B)
[3] = test compound 3 µM, TGFβ-1 2 ng/ml, 4 hr, Table 1A
[4] = test compound 10 µM, TGFβ-1 2 ng/ml, 4 hr, Table 1A
[5] = test compound 3 µM, Reference Examples, Table 1B
[6] = test compound 10 µM, Reference Examples, Table 1B

Compound	inhibition at 3 µM [1] [%]	inhibition at 10 µM [2] [%]	inhibition at 3 µM [3] [%]	inhibition at 10 µM [4] [%]	also measured
COc1cc2c(Oc3cc4cccnc4nc3C)ccnc2cc1OCCCl [Compound r398]	78	97	–	–	–
COc1cc2nccc(Oc3cc4cccnc4nc3-c3ccncc3)c2cc1OC [Compound 89, 3-(6,7-Dimethoxy-quinolin-4-yloxy)-2-pyridin-4-yl-[1,8]naphthyridine]	–	–	36	77	–
COc1cc2c(Oc3cc4ccccc4nc3C)ccnc2cc1OCC(N)=O [Compound r370]	85	99	–	–	–
COc1cc2c(Oc3cc(C)c(C)nc3-c3ccccn3)ccnc2cc1OCc1ccccc1 [Compound r337]	98	–	–	–	–
COc1ccc(Oc2ccnc3cc(O)c(OC)cc23)c(C(C)=O)c1 [r312]	50	76	–	–	–
CCC(=O)c1cc(Cl)ccc1Oc1ccnc2cc(OC)c(OC)cc12 [r46]	–	–	–	–	inhibition at 3 µM [5]: 70%; inhibition at 10 µM [6]: 100%
COc1cc2nccc(Oc3cc(C)c(C)nc3-c3ncccn3)c2cc1OC [r274]	97	–	–	–	–
CNC(=O)c1cc(OC)ccc1Oc1ccnc2cc(OC)c(OC)cc12 [Compound r110]	–	–	–	–	inhibition at 3 µM [5]: 55%; inhibition at 10 µM [6]: 93%
COC(=O)COc1cc2nccc(Oc3cc4ccccc4nc3C)c2cc1OC [Compound r371]	28	90	–	–	–
Cc1cc(Oc2ccnc3ccc(-c4ccccc4N)cc23)c(-c2ccccn2)nc1C [Compound 9, 2-[4-(5,6-Dimethyl-[2,2']bipyridin-3-yloxy)-quinolin-6-yl]-phenylamine]	–	–	87	100	–
4-(6-Fluoro-2-iodo-pyridin-3-yloxy)-6,7-dimethoxy-quinoline [Compound r211]	–	–	–	–	TGFβ inhibition rate, % [1]: 87%; TGFβ inhibition rate, % [2]: 100%
COc1cc2nccc(Oc3cc4cccnc4nc3-c3ccc(F)cc3)c2cc1OC [Compound 83, 3-(6,7-Dimethoxy-quinolin-4-yloxy)-2-(4-fluoro-phenyl)-[1,8]naphthyridine]	–	–	92	99	–
COc1cc2c(Oc3cc4ccccc4nc3C)ccnc2cc1OCC(CO)(CO)CO [Compound r388]	88	100	–	–	–
COc1cc2c(Oc3cc4cccnc4nc3C)ccnc2cc1OCCN1CCC(O)CC1 [Compound r451]	99	100	–	–	–
COc1cc2c(Oc3cc4ccccc4nc3C)ccnc2cc1OCCN [Compound r354]	100	100	–	–	–
Cc1cc(Oc2ccnc3cc(-c4csc5ccccc45)ccc23)c(-c2ccccn2)nc1C [Compound 172, 3-(7-Benzo[b]thiophen-3-yl-quinolin-4-yloxy)-5,6-dimethyl-[2,2']bipyridine]	–	–	49	90	–
Cc1cc(Oc2ccnc3ccc(OCc4ccccc4)cc23)c(-c2ccccn2)nc1C [Compound 136, 3-(6-Benzyloxy-quinolin-4-yloxy)-5,6-dimethyl-[2,2']bipyridine]	–	–	93	100	–
COc1cc2nccc(Oc3ccc(C)nc3-c3ncccn3)c2cc1OC [Compound 188, 4-(6-Methyl-2-pyrimidin-2-yl-pyridin-3-yloxy)-6,7-dimethoxy-quinoline]	–	–	100	100	–
COc1cc2c(Oc3cc4ccccc4nc3C)ccnc2cc1OCC(CO)(CO)CBr [Compound r389]	100	100	–	–	–
Cc1cc(Oc2ccnc3cc(-c4ncccn4)ccc23)c(-c2ccccn2)nc1C [Compound 177, 5,6-Dimethyl-3-(7-pyrimidin-2-yl-quinolin-4-yloxy)-[2,2']blpyridine]	–	–	98	100	–
CCC(=O)c1cc(OC(F)(F)F)ccc1Oc1ccnc2cc(OC)c(OC)cc12 [Compound r51]	–	–	–	–	inhibition at 3 µM [5]: 71%; inhibition at 10 µM [6]: 99%
